Measurements as given in ChEMBL document CHEMBL1201862, “PubChem BioAssay data set” (2004).
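48-hour exposure; five concentrations; linearly interpolated endpoints. GI50 marks 50% less growth.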 Calls of active or inactive are those of the source. Cut-off read from the data, not from the text of the source: active = GI50 up to about 1.1 µM and inactive = higher.

Key:
Test in all cases: NCI anticancer screen, dose series, 48 h
EKVX = system: EKVX
HCT-116 = system: HCT-116
HOP-62 = system: HOP-62
NCI-H460 = system: NCI-H460
OVCAR-3 = system: OVCAR-3
OVCAR-4 = system: OVCAR-4
SF-295 = system: SF-295
SF-539 = system: SF-539
SK-MEL-28 = system: SK-MEL-28
SK-OV-3 = system: SK-OV-3
SN12C = system: SN12C
SNB-75 = system: SNB-75
UACC-257 = system: UACC-257
UO-31 = system: UO-31
LOX IMVI = system: LOX IMVI
SR = system: SR

Measured: GI50

NC1CCCCC1.O=C(O)C1(P(=O)(O)O)CC1
inactive: EKVX > 100 µM | HCT-116 > 100 µM | HOP-62 > 100 µM | NCI-H460 > 100 µM | OVCAR-3 > 100 µM | OVCAR-4 > 100 µM | SF-295 > 100 µM | SF-539 > 100 µM | SK-MEL-28 > 100 µM | SK-OV-3 > 100 µM | SN12C > 100 µM | SNB-75 92.3 µM | UACC-257 > 100 µM | UO-31 > 100 µM

CC(=O)OC1COC(n2c(=S)n(-c3ccc(C)cc3)c(=O)c3ccccc32)C(OC(C)=O)C1OC(C)=O (stereo not drawn)
inactive: EKVX > 100 µM | HCT-116 > 100 µM | HOP-62 > 100 µM | LOX IMVI > 100 µM | NCI-H460 > 100 µM | OVCAR-3 > 100 µM | OVCAR-4 > 100 µM | SF-295 85.5 µM | SF-539 > 100 µM | SK-MEL-28 > 100 µM | SK-OV-3 > 100 µM | SN12C > 100 µM | SNB-75 63.2 µM | UACC-257 > 100 µM | UO-31 > 100 µM

O=S(=O)(N/N=C/c1cccc(/C=N/NS(=O)(=O)c2ccccc2)c1)c1ccccc1
inactive: EKVX 77.6 µM | HCT-116 83.9 µM | HOP-62 > 100 µM | LOX IMVI 30 µM | NCI-H460 68.7 µM | OVCAR-3 54.8 µM | OVCAR-4 77.8 µM | SF-295 28 µM | SF-539 > 100 µM | SK-MEL-28 88.7 µM | SK-OV-3 > 100 µM | SN12C > 100 µM | SNB-75 > 100 µM | SR 58.1 µM | UACC-257 39.3 µM | UO-31 46.7 µM

Cc1ccccc1NC(=O)C(=O)Cc1nc2ccccc2s1
inactive: HCT-116 > 100 µM | HOP-62 > 100 µM | LOX IMVI > 100 µM | NCI-H460 > 100 µM | OVCAR-3 > 100 µM | OVCAR-4 > 100 µM | SF-295 > 100 µM | SF-539 > 100 µM | SK-MEL-28 > 100 µM | SK-OV-3 > 100 µM | SN12C > 100 µM | SNB-75 > 100 µM | SR > 100 µM | UACC-257 > 100 µM | UO-31 > 100 µM

COC(=O)c1ccccc1N1C(=O)Cc2ccccc2C1=O
inactive: EKVX > 100 µM | HCT-116 > 10 µM | OVCAR-3 35.6 µM | SF-295 45.4 µM | SF-539 75.3 µM | SK-MEL-28 > 100 µM | SK-OV-3 42.9 µM | SN12C > 100 µM | SNB-75 21.6 µM | SR > 100 µM | UACC-257 > 100 µM | UO-31 > 100 µM

Cc1[nH]c2ccccc2c1-c1n[nH]c(=O)c2ccccc12
inactive: EKVX 17.9 µM | HCT-116 13.3 µM | HOP-62 6.56 µM | NCI-H460 22.9 µM | OVCAR-3 23.3 µM | OVCAR-4 29.3 µM | SF-295 23.3 µM | SF-539 24.3 µM | SK-MEL-28 26.5 µM | SK-OV-3 25.1 µM | SNB-75 15.3 µM | UACC-257 25.1 µM | UO-31 17.3 µM

CC(C)OC(=O)c1cccnc1/C=N/O
inactive: EKVX > 100 µM | HCT-116 > 100 µM | HOP-62 > 100 µM | LOX IMVI > 100 µM | NCI-H460 84.1 µM | OVCAR-3 > 100 µM | SF-295 88.5 µM | SF-539 > 100 µM | SK-OV-3 > 100 µM | SN12C > 100 µM | SNB-75 > 100 µM | UACC-257 > 100 µM | UO-31 > 100 µM

CCC1CCCCN1CC(C(C)=O)C(c1ccccc1)c1c(O)c2ccccc2oc1=O (stereo not drawn)
inactive: EKVX > 100 µM | HCT-116 > 100 µM | HOP-62 > 100 µM | LOX IMVI > 100 µM | NCI-H460 > 100 µM | OVCAR-3 > 100 µM | OVCAR-4 > 100 µM | SF-295 > 100 µM | SF-539 > 100 µM | SK-MEL-28 > 100 µM | SK-OV-3 > 100 µM | SN12C > 100 µM | SNB-75 6.87 µM | SR 80.7 µM | UACC-257 > 100 µM | UO-31 > 100 µM

N#C/C(=C1\SC(C(N)=O)=C(N)N1c1ccccc1)c1nc2ccccc2[nH]1
inactive: EKVX > 100 µM | HCT-116 > 100 µM | HOP-62 > 100 µM | LOX IMVI 32.2 µM | NCI-H460 > 100 µM | OVCAR-3 > 100 µM | OVCAR-4 > 100 µM | SF-295 > 100 µM | SF-539 75.9 µM | SK-MEL-28 > 100 µM | SK-OV-3 > 100 µM | SN12C > 100 µM | SNB-75 48.2 µM | UACC-257 > 100 µM | UO-31 99.1 µM

O=c1c(C(c2ccc([N+](=O)[O-])cc2)c2c(O)c3ccccc3n(-c3ccccc3)c2=O)c(O)c2ccccc2n1-c1ccccc1
inactive: EKVX 24.5 µM | HCT-116 18.7 µM | HOP-62 14.5 µM | LOX IMVI 11.8 µM | OVCAR-3 24.1 µM | OVCAR-4 59.7 µM | SF-295 12.5 µM | SF-539 12.6 µM | SK-MEL-28 16.5 µM | SK-OV-3 7.38 µM | SN12C 11.7 µM | SR 9.98 µM | UO-31 8.51 µM

CNC(C)(C)Cc1ccc(Cl)cc1
inactive: EKVX > 100 µM | HCT-116 > 100 µM | HOP-62 > 100 µM | LOX IMVI > 100 µM | NCI-H460 > 100 µM | OVCAR-3 > 100 µM | OVCAR-4 > 100 µM | SF-295 > 100 µM | SF-539 > 100 µM | SK-MEL-28 > 100 µM | SK-OV-3 > 100 µM | SN12C > 100 µM | SNB-75 > 100 µM | UACC-257 > 100 µM

NC(=O)C(=O)C1C(=O)N(c2ccccc2)N=C1N (stereo not drawn)
inactive: HCT-116 > 100 µM | HOP-62 > 100 µM | LOX IMVI > 100 µM | NCI-H460 > 100 µM | OVCAR-3 > 100 µM | OVCAR-4 > 100 µM | SF-295 > 100 µM | SF-539 > 100 µM | SK-MEL-28 > 100 µM | SK-OV-3 > 100 µM | SN12C > 100 µM | SNB-75 > 100 µM | SR > 100 µM | UACC-257 > 100 µM | UO-31 > 100 µM

CC(C)C(C(=O)O)N(CC1(O)OCC(O)C(O)C1O)N=O (stereo not drawn)
inactive: EKVX > 100 µM | HCT-116 > 100 µM | HOP-62 > 100 µM | LOX IMVI > 100 µM | NCI-H460 > 100 µM | OVCAR-3 > 100 µM | SF-539 > 100 µM | SK-MEL-28 > 100 µM | SK-OV-3 > 100 µM | SNB-75 > 100 µM | UACC-257 > 100 µM | UO-31 > 100 µM

O=C(CCc1ccccc1)NS(=O)(=O)c1ccccc1
inactive: EKVX > 100 µM | HCT-116 > 100 µM | HOP-62 > 100 µM | LOX IMVI > 100 µM | NCI-H460 > 100 µM | OVCAR-3 > 100 µM | OVCAR-4 > 100 µM | SF-295 > 100 µM | SF-539 > 100 µM | SK-MEL-28 > 100 µM | SK-OV-3 > 100 µM | SN12C > 100 µM | SNB-75 > 100 µM | SR > 100 µM | UACC-257 > 100 µM | UO-31 > 100 µM

CSc1nc2c(nc(N)n2C2OC(COC(C)=O)C(OC(C)=O)C(OC(C)=O)C2OC(C)=O)c(=O)n1C (stereo not drawn)
inactive: EKVX > 100 µM | HCT-116 > 100 µM | HOP-62 > 100 µM | LOX IMVI > 100 µM | NCI-H460 > 100 µM | OVCAR-3 > 100 µM | OVCAR-4 > 100 µM | SF-295 > 100 µM | SF-539 > 100 µM | SK-OV-3 > 100 µM | SN12C > 100 µM | SNB-75 > 100 µM | UACC-257 > 100 µM | UO-31 > 100 µM

CN(C)CC1(C)CC/C(=C\c2ccc3c(c2)OCO3)C1=O (stereo not drawn)
inactive: HCT-116 > 100 µM | HOP-62 > 100 µM | LOX IMVI > 100 µM | NCI-H460 > 100 µM | OVCAR-3 > 100 µM | OVCAR-4 > 100 µM | SF-295 > 100 µM | SF-539 > 100 µM | SK-MEL-28 > 100 µM | SN12C > 100 µM | SNB-75 > 100 µM | SR 45.9 µM | UACC-257 > 100 µM | UO-31 > 100 µM

Clc1ccc2c(c1)-c1c3c(nn1-c1ccccc1)-c1ccccc1SC3O2 (stereo not drawn)
inactive: EKVX > 100 µM | HCT-116 > 100 µM | HOP-62 > 100 µM | LOX IMVI 71.3 µM | NCI-H460 > 100 µM | OVCAR-3 > 100 µM | SF-295 > 100 µM | SF-539 > 100 µM | SK-MEL-28 > 100 µM | SK-OV-3 > 100 µM | SNB-75 82.6 µM | UACC-257 > 100 µM | UO-31 > 100 µM

CC1C=CC(C)C2(O)C(=O)NC(O)C12 (stereo not drawn)
inactive: EKVX > 100 µM | HCT-116 > 100 µM | HOP-62 > 100 µM | NCI-H460 > 100 µM | OVCAR-4 > 100 µM | SF-539 > 100 µM | SK-MEL-28 > 100 µM | SK-OV-3 > 100 µM | SN12C > 100 µM | SNB-75 > 100 µM | SR > 100 µM | UACC-257 > 100 µM | UO-31 > 100 µM

NC(N)=NN/C(=C1/N=c2ccc([N+](=O)[O-])cc2=NC1=O)C(O)c1ccco1 (stereo not drawn)
inactive: EKVX > 100 µM | HCT-116 > 100 µM | HOP-62 > 100 µM | LOX IMVI > 100 µM | NCI-H460 > 100 µM | OVCAR-4 > 100 µM | SF-295 > 100 µM | SF-539 > 100 µM | SK-MEL-28 > 100 µM | SK-OV-3 > 100 µM | SN12C > 100 µM | SNB-75 > 100 µM | SR > 100 µM | UACC-257 > 100 µM | UO-31 64.7 µM
